# According to ChEMBL document CHEMBL4402545, “Subtype Selective γ-Aminobutyric Acid Type A Receptor (GABAAR) Modulators Acting at the Benzodiazepine Binding Site: An Update” (J Med Chem, 2020):
# pKi: −log10 of the molar value.
# How the values were obtained:
# [1] = molecular target: T1, GABA-A receptor; alpha-5/beta-3/gamma-2 (Homo sapiens, UniProt P18507+P28472+P31644); test: Displacement of [3H]-flumazenil from human GABAA alpha5beta3gamma2 expressed in Ltk cells; assay type: cell-based
# T1 sequence (P18507 whole entry): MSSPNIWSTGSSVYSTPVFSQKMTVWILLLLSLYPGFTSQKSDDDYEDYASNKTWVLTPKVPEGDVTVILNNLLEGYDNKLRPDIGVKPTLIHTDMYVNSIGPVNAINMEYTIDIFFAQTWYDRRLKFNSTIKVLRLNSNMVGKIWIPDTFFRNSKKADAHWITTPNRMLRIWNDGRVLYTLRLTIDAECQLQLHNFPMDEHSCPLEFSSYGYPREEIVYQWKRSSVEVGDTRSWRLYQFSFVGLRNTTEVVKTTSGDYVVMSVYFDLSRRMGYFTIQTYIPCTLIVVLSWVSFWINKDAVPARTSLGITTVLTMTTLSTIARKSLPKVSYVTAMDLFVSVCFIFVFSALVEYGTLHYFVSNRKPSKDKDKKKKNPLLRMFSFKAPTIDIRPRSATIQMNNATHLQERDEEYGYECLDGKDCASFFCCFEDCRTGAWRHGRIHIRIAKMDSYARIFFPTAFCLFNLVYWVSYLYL
# T1 sequence (P28472 whole entry): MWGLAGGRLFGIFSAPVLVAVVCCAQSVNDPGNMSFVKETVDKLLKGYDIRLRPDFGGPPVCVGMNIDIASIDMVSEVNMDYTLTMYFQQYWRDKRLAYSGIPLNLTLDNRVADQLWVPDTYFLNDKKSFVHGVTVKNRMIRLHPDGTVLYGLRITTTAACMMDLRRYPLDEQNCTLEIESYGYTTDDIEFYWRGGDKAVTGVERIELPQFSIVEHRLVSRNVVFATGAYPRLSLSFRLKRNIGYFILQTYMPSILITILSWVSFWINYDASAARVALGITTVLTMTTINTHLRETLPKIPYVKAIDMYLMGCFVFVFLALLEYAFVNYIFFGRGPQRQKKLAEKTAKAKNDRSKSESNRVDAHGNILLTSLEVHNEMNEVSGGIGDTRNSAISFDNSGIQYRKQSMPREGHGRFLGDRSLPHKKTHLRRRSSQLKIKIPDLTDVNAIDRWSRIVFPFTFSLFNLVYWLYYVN
# T1 sequence (P31644 whole entry): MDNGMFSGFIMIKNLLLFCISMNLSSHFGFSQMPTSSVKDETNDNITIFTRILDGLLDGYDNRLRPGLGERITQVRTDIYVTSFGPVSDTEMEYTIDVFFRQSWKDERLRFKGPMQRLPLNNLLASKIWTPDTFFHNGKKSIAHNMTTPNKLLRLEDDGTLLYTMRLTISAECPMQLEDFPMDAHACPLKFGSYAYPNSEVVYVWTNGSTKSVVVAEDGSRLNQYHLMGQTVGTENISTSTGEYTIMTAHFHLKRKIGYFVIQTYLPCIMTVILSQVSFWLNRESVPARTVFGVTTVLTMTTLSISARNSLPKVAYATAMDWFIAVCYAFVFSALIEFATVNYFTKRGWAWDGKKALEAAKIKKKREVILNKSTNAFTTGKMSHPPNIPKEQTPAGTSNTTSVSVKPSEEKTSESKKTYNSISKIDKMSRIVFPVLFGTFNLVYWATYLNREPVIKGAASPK
# [2] = molecular target: GABA-A receptor; alpha-1/beta-3/gamma-2 (Homo sapiens) (UniProt P14867+P18507+P28472); test: Positive allosteric modulation of recombinant human GABAA alpha1beta3gamma2 expressed in Ltk cells assessed as […] current response by whole cell patch clamp method relative to chlordiazepoxide; assay type: cell-based
# [3] = molecular target: T2, GABA-A receptor; alpha-3/beta-3/gamma-2 (Homo sapiens, UniProt P18507+P28472+P34903); test: Displacement of [3H]-flumazenil from human GABAA alpha3beta3gamma2 expressed in Ltk cells; assay type: cell-based
# T2 sequence (P18507 whole entry): T1 sequence (P18507 whole entry)
# T2 sequence (P28472 whole entry): T1 sequence (P28472 whole entry)
# T2 sequence (P34903 whole entry): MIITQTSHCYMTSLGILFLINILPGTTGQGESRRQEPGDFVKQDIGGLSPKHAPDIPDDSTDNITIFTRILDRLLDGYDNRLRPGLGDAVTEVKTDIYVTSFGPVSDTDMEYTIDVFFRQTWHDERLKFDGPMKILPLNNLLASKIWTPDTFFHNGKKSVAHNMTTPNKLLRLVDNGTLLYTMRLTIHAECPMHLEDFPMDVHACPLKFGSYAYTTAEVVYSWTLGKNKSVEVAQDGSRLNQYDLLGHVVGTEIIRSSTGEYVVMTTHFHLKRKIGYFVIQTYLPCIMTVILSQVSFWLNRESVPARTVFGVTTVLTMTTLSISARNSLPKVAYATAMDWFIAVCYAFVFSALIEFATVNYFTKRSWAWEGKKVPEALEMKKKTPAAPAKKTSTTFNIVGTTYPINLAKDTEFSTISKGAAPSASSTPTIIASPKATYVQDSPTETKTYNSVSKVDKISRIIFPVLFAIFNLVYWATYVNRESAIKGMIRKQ
# Rattus norvegicus [4] = test: In vivo receptor occupancy at GABAA receptor in po dosed Sprague-Dawley rat assessed as brain concentration causing 50% reduction in [3H]-flumazenil receptor labeling by scintillation counting method; assay type: functional
# Homo sapiens [5] = species: Homo sapiens; test: Positive allosteric modulation of recombinant human GABAA alpha2beta3gamma2 expressed in Ltk cells assessed as […] current response by whole cell patch clamp method relative to chlordiazepoxide; assay type: cell-based
# [6] = molecular target: GABA-A receptor; alpha-3/beta-3/gamma-2 (Homo sapiens) (UniProt P18507+P28472+P34903); test: Positive allosteric modulation of recombinant human GABAA alpha3beta3gamma2 expressed in Ltk cells assessed as […] current response by whole cell patch clamp method relative to chlordiazepoxide; assay type: cell-based
# [7] = molecular target: GABA-A receptor; alpha-5/beta-3/gamma-2 (Homo sapiens) (UniProt P18507+P28472+P31644); test: Positive allosteric modulation of recombinant human GABAA alpha5beta3gamma2 expressed in Ltk cells assessed as […] current response by whole cell patch clamp method relative to chlordiazepoxide; assay type: cell-based
# [8] = Displacement of [3H]-flumazenil from human GABAA alpha2beta3gamma2 expressed in Ltk cells; assay type: cell-based
# [9] = molecular target: T3, GABA-A receptor; alpha-1/beta-3/gamma-2 (Homo sapiens, UniProt P14867+P18507+P28472); test: Displacement of [3H]-flumazenil from human GABAA alpha1beta3gamma2 expressed in Ltk cells; assay type: cell-based
# T3 sequence (P14867 whole entry): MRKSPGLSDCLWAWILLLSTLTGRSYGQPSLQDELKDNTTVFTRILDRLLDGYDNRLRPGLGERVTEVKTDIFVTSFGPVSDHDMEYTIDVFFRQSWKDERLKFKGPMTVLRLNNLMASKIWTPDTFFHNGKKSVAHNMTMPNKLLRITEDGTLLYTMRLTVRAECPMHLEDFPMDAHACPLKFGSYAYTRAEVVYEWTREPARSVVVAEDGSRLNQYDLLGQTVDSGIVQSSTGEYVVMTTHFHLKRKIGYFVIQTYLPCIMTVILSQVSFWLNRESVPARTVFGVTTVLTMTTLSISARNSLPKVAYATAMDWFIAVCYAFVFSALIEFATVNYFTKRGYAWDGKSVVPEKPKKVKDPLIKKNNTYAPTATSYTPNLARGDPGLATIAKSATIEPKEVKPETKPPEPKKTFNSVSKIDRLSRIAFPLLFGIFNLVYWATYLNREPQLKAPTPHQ
# T3 sequence (P18507 whole entry): T1 sequence (P18507 whole entry)
# T3 sequence (P28472 whole entry): T1 sequence (P28472 whole entry)
# [10] = molecular target: T4, Gamma-aminobutyric acid receptor subunit alpha-3 (Homo sapiens, UniProt P34903); test: Binding affinity to GABA-A alpha3 (unknown origin)
# T4 sequence (P34903 whole entry): T2 sequence (P34903 whole entry)
# [11] = molecular target: T5, Gamma-aminobutyric acid receptor subunit alpha-2 (Homo sapiens) (UniProt P47869); test: Binding affinity to GABA-A alpha2 (unknown origin) assessed as increase in induced current relative to control
# T5 sequence (whole entry): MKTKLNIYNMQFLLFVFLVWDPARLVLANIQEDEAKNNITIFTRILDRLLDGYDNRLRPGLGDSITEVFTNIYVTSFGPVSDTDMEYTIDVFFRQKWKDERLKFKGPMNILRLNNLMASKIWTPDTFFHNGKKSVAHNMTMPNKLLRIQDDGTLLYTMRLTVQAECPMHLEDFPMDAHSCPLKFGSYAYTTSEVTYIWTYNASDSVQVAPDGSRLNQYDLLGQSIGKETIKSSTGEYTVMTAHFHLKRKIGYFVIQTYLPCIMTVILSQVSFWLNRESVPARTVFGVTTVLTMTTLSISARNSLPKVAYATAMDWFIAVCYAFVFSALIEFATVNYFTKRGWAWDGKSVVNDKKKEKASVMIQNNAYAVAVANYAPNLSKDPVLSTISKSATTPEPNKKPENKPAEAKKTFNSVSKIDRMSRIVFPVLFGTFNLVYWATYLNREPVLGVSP
# [12] = molecular target: T6, Gamma-aminobutyric acid receptor subunit alpha-1 (Homo sapiens, UniProt P14867); test: Binding affinity to GABA-A alpha1 (unknown origin)
# T6 sequence (P14867 whole entry): T3 sequence (P14867 whole entry)
# Homo sapiens [13] = test: In vivo receptor occupancy at GABAA receptor in po dosed human assessed as plasma concentration causing 50% reduction in [11C]-flumazenil receptor labeling; assay type: functional
# [14] = molecular target: T7, Gamma-aminobutyric acid receptor subunit alpha-5 (Homo sapiens, UniProt P31644); test: Binding affinity to GABA-A alpha5 (unknown origin)
# T7 sequence (P31644 whole entry): T1 sequence (P31644 whole entry)
# [15] = molecular target: T8, Gamma-aminobutyric acid receptor subunit alpha-5 (Homo sapiens) (UniProt P31644); test: Binding affinity to GABA-A alpha5 (unknown origin) assessed as increase in induced current relative to control
# T8 sequence (whole entry): T1 sequence (P31644 whole entry)
# Homo sapiens [16] = test: In vivo receptor occupancy GABAA receptor in human assessed as neocortical regions concentration causing reduction in [11C]flumazenil receptor labeling at 1.5 mg after 5 hrs by PET method relative to control; assay type: functional
# [17] = molecular target: T9, Gamma-aminobutyric acid receptor subunit alpha-2 (Homo sapiens, UniProt P47869); test: Binding affinity to GABA-A alpha2 (unknown origin)
# T9 sequence (P47869 whole entry): T5 sequence (whole entry)
# Rattus norvegicus [18] = test: In vivo receptor occupancy at GABAA receptor in po dosed Sprague-Dawley rat assessed as plasma concentration causing 50% reduction in [3H]-flumazenil receptor labeling by scintillation counting method; assay type: functional
# Homo sapiens [19] = test: In vivo receptor occupancy GABAA receptor in human assessed as neocortical regions concentration causing reduction in [11C]flumazenil receptor labeling at 1.5 mg after 24 hrs by PET method relative to control; assay type: functional
# [20] = molecular target: T10, Gamma-aminobutyric acid receptor subunit alpha-3 (Homo sapiens) (UniProt P34903); test: Binding affinity to GABA-A alpha3 (unknown origin) assessed as increase in induced current relative to control
# T10 sequence (whole entry): T2 sequence (P34903 whole entry)
# [21] = molecular target: T11, Gamma-aminobutyric acid receptor subunit alpha-1 (Homo sapiens) (UniProt P14867); test: Binding affinity to GABA-A alpha1 (unknown origin) assessed as increase in induced current relative to control
# T11 sequence (whole entry): T3 sequence (P14867 whole entry)
# Rattus norvegicus [22] = test: In vivo receptor occupancy at GABAA receptor in po dosed Sprague-Dawley rat assessed as brain concentration causing 50% reduction in [3H]-flumazenil receptor labeling after 0.75 hrs by scintillation counting method; assay type: functional
structure (smiles),measurement,setting,value
Cn1ncnc1COc1nn2c(-c3c(F)cccc3F)nnc2cc1C1CCC1,pKi,[1],9.64
same,fold change (FC),[2],0.18
same,pKi,[3],9.68
same,Occ50,Rattus norvegicus [4],2.2 mg/kg
same,fold change (FC),Homo sapiens [5],0.23
same,fold change (FC),[6],0.45
same,fold change (FC),[7],0.18
same,pKi,[8],9.40
same,pKi,[9],9.66
CC(C)(O)c1cnn2c(-c3ccc(F)c(-c4c(F)cccc4C#N)c3)cnc2n1,pKi,[10],8.74
same,fold change (FC),[11],0.38
same,pKi,[12],9.14
same,Occ50,Homo sapiens [13],5.8 ng/mL
same,pKi,[14],8.96
same,fold change (FC),[15],0.37
same,Occ,Homo sapiens [16],52%
same,pKi,[17],8.70
same,Occ50,Rattus norvegicus [18],19 ng/mL
same,Occ,Homo sapiens [19],46%
same,fold change (FC),[20],0.5
same,fold change (FC),[21],0.03
same,Occ50,Rattus norvegicus [22],0.09 mg/kg
